US11110158B2, “Prostate-associated antigens and vaccine-based immunotherapy regimens” (Pfizer Inc., priority 2012, dated 2021)

Legend:
rhesus PSMA = assay: IFNγ ELISPOT of PBMCs, PSMA DNA electroporation with or without CpG in Chinese cynomolgus macaques, rhesus PSMA peptide pools; type: in vivo; details: group 6: 200 μg CpG co-electroporated, compared to animals that did not receive CpG (group 1); P<0.05
Experimental: (§1) Six groups of Chinese cynomolgus macaques, six (#1 to 6) per each test group, were immunized with a plasmid DNA encoding the human PSMA modified antigen (amino acids 15-750 of SEQ ID NO:1) delivered by electroporation. Briefly, all animals received bilateral intramuscular injections of 5 mg of plasmid DNA followed by electroporation (DNA EP) on day 0. Subsequently right after the electroporation, group 2 received bilateral intramuscular injections of 2 mg of CpG mixed with 1 mg Alum in proximity to the DNA injection sites. Group 3 and 4 received bilateral intramuscular injections of 2 mg of CpG delivered without alum in proximity to the DNA injection sites either on day 0 or day 3, respectively. Group 5 received 2 mg of bilateral intradermal injections of CpG delivered in proximity to the vaccine draining inguinal nodes on day 3. Group 6 received bilateral injections of 200 μg of CpG mixed with the DNA solution which was co-electroporated into the muscle on day 0.
Peripheral blood samples were collected from each animal fifteen days after the DNA immunization. Peripheral blood mononuclear cells (PBMCs) were isolated from the blood samples and were subjected to an IFNγELISPOT assay to measure the PSMA specific T cell responses. […] The number of IFNγ spot forming cells (SFC) were counted by CTL reader. […] ND indicates not determined.

rHER2 [1] = assay: Intracellular cytokine staining, rHER2 DNA vaccine with CpG 7909 or anti-CD40 in BALB/c mice; type: in vivo, rat; details: FIGS. 41A, 41B; CpG 7909 intradermal after both PMED immunizations, versus PBS
Experimental: (§2) The effect of local administration of immune modulators on the magnitude and quality of antigen specific immune responses induced by a cancer was investigated in BALB/c mice, in which the immune response was assessed by measuring rHER2 specific T cell responses using the IFNγ ELISPOT assay or intracellular cytokine staining assay. Briefly, 4 to 6 female BALB/c mice per group as indicated were immunized with DNA plasmid expression constructs encoding rHER2 antigen sequences (SEQ ID NO:54) by PMED delivery system. The immune modulators, CpG7909 (PF-03512676) and anti-CD40 monoclonal agonistic antibody, were administered locally by intradermal injections in proximity to the vaccine draining inguinal lymph node subsequently after the PMED actuations. Antigen specific T cell responses were measured by IFNγ […]ELISPOT or intracellular cytokine staining assay according to the procedure described below.
The rHer-2 specific polyfunctional (multi-cytokine positive) T cell immune responses were measured from splenocytes or PBMCs isolated from individual animals by ICS assay. […] The total number of antigen specific single, double or triple cytokine positive T cells per total spleen of each animal is calculated by subtracting the rHer-2 specific responses to the irrelevant peptide HBV from the vaccine specific responses and normalized to the total number of splenocytes isolated from the spleen.

rHER2 [2] = assay: IFNγ ELISPOT, rHER2 DNA vaccine with CpG7909 or anti-CD40 in BALB/c mice; type: in vivo, mouse; details: FIG. 40; intradermal after PMED; CpG7909 50 g or anti-CD40 100 ug as printed; versus control antibodies; 7 days after PMED
Experimental: as §2, with “The immune modulators, CpG7909 (PF-03512676) and anti-CD40 monoclonal agonistic antibody, were administered locally by intradermal injections in proximity to the vaccine draining inguinal lymph node subsequently after the PMED actuations.” left out
Briefly, each mouse per treatment group (n=4) was immunized with DNA plasmid expression constructs encoding rHER2 antigen sequences (SEQ ID NO:54) by PMED immediately followed by either 100 ug of control rat IgG monoclonal antibody (Bioxcell #BE0089: control mAb) or 50 g CpG7909 or 100 ug of anti-CD40 monoclonal antibody (Bioxcell #BE0016-2: a-CD40 mAb) as indicated. The antigen specific immune responses were measured by IFNγ ELISPOT assay from 5e5 splenocytes mixed with control or rHer-2 specific p66 peptides at 10 µg/ml concentration, 7 days after the PMED actuation. […]

[3] = cited from earlier work
human PSMA = assay: IFNγ ELISPOT of PBMCs, PSMA DNA electroporation with or without CpG in Chinese cynomolgus macaques, human PSMA peptide pools; type: in vivo, cynomolgus macaque; details: for animals that failed to produce high responses: intramuscular right after electroporation on day 0; for animals with modestly higher total response to the PSMA peptides: 3 days after DNA electroporation, cynomolgus
Experimental: as §1
Peripheral blood samples were collected from each animal fifteen days after the DNA immunization. Peripheral blood mononuclear cells (PBMCs) were isolated from the blood samples and were subjected to an IFNγELISPOT assay to measure the PSMA specific T cell responses. Briefly, 4e5 PBMCs from individual animals were plated per well with pools of PSMA specific peptides or nonspecific control peptides (human HER2 peptide pool) each at 2 ug/ml in IFNγELISPOT plates. The plates were incubated for 16 hrs at 37° C. and 5% CO2 and washed and developed after incubation as per manufacturer's instruction. The number of IFNγ spot forming cells (SFC) were counted by CTL reader. Each condition was performed in duplicates. […] ND indicates not determined.

LNCaP = assay: Antibody-dependent cell-mediated cytotoxicity, chromium 51 release, human PBMC effectors; type: cell-based; details: target LNCaP (PSMA+); plasma 1:50 or control mAb
Experimental: (§3) An Indian rhesus macaque was immunized with a nucleic acid encoding a human PSMA modified antigen delivered by adenovirus (1e11 V.P. injected intramuscularly) followed by 2 PMED immunizations (8 actuations/immunization, 4 actuations per each right and left side of the lower abdomen) with 8 and 6 week intervals respectively. The animal also received intradermal injections of 3 mg of CpG (PF-03512676) in proximity to each inguinal draining lymph node at the time of the second PMED immunization. The antibody dependent cell-mediated cytotoxicity was determined from the plasma collected from the blood before any immunizations (pre-immune plasma) and 8 days after the last PMED immunization (immune plasma).
(§4) Antibody-dependent cell-mediated cytotoxicity was determined using the standard chromium 51 release assay. Human prostate cancer cell lines LNCaP and PC3 were used as target cells. Freshly isolated human PBMC cells were used as effector cells. Effectors to target cells were set at 30:1. Briefly, for one labeling reaction, 1.5×10^6 target cells in 200 ul were incubated with 200 μCi ^51Cr (37° C., 5% CO2 for 1 hour).

PC3 = assay: as above; type: cell-based; details: target PC3 (PSMA negative); plasma 1:50 or control mAb
Experimental: as §3, §4

Substance | response to peptide pool R1 (rhesus PSMA) | rHer-2 specific multi-cytokine positive CD8 and CD4 T cell responses (rHER2 [1]) | magnitude of antigen specific immune responses induced by rHer-2 DNA (IFNγ ELISPOT, p66 peptide) (rHER2 [2]) | single intravenous dose well tolerated with no clinical effects and no significant toxicity ([3]; patients with previously treated chronic lymphocytic leukemia) | dose limiting toxicity ([3]; single dose subcutaneous) | maximum tolerated dose (MTD) ([3]; single dose subcutaneous) | animals that failed to produce high responses (human PSMA; group 2: CpG 2 mg mixed with 1 mg Alum) | animals that failed to produce high responses (human PSMA; group 3: CpG 2 mg without alum) | animals with modestly higher total response to the PSMA peptides (human PSMA; group 4: CpG 2 mg bilateral intramuscular) | animals with modestly higher total response to the PSMA peptides (human PSMA; group 5: CpG 2 mg bilateral intradermal) | animals with higher net responses (human PSMA; group 6: 200 μg CpG co-electroporated with the DNA solution into the muscle) | response to peptide pool H1 (human PSMA; group 6: 200 μg CpG co-electroporated, compared to animals that did not receive CpG (group 1), P<0.05) | Percent specific lysis at E:T of 30:1 (LNCaP) | Percent specific lysis at E:T of 30:1 (PC3)
5′ TCGTCGTTTTGTCGTTTTGTCGTT3′ [CpG 7909] | statistically higher response | significant increase | significantly enhanced the magnitude of antigen specific immune responses | up to 1.05 mg/kg | myalgia and constitutional effects | 0.45 mg/kg | 4/6 | 3/6 | 3/6 | 2/6 | 4/6 | statistically higher response |  | 
Rituxan: monoclonal against B cell antigen (CD20), negative control antibody |  |  |  |  |  |  |  |  |  |  |  |  | 8.99% | 0%
